According to ChEMBL document CHEMBL2046380, “Synthesis and structure-activity relationship of disubstituted benzamides as a novel class of antimalarial agents” (Bioorg Med Chem Lett, 2012):

Key:
[1] = test system: BJ; test: Cytotoxicity against human BJ cells after 72 hrs by […] CellTiterGlo reagent assay; assay type: cell-based
[2] = test system: Raji; test: Cytotoxicity against human Raji cells after 72 hrs by […] CellTiterGlo reagent assay; assay type: cell-based
[3] = test system: HepG2; test: Cytotoxicity against human HepG2 cells after 72 hrs by […] CellTiterGlo reagent assay; assay type: cell-based; conditions: HepG2, 72 h
[4] = test system: HEK293; test: Cytotoxicity against human HEK293 cells after 72 hrs by […] CellTiterGlo reagent assay; assay type: cell-based; conditions: HEK293, 72 h
[5] = test system: Plasmodium falciparum; test: Antimalarial activity against […] incubated for 72 hrs by DNA staining based MARK1 growth inhibition assay; assay type: functional, organism-based
[6] = test system: Plasmodium falciparum; test: Antimalarial activity against chloroquine-sensitive Plasmodium falciparum 3D7 incubated for 72 hrs by DNA staining based MAR3D7 growth inhibition assay; assay type: functional, organism-based; conditions: 3D7, 72 h

Structure (SMILES) | EC50 [1] [µM] | EC50 [2] [µM] | EC50 [3] [µM] | EC50 [4] [µM] | EC50 [5] [µM] | EC50 [6] [µM]
COC(=O)c1cc(-c2cccs2)nc2ccccc12 | > 26 | > 26 | > 26 | > 26 | > 15 | > 15
O=C(O)c1cc(-c2ccco2)nc2ccccc12 | > 26 | > 26 | > 26 | > 26 | > 15 | > 15
CC(C)N(Cc1ccc(OCCCCCC(=O)O)cc1)C(=O)c1ccc(-c2ccc3c(c2)OCO3)cc1 | > 26 | > 26 | > 26 | > 26 | 1.82 | > 15
CC(C)N(Cc1ccccc1OCCCCCC(=O)O)C(=O)c1ccc(-c2ccc3c(c2)OCO3)cc1 | > 26 | > 26 | > 26 | > 26 | > 15 | > 15
CCCN(Cc1cccc(OCCCCCC(=O)O)c1)C(=O)c1ccc(-c2ccc3c(c2)OCO3)cc1 | > 26 | > 26 | > 26 | > 26 | 0.995 | 0.174
CCCN(Cc1ccc(OCCCCCC(=O)O)cc1)C(=O)c1ccc(-c2ccc3c(c2)OCO3)cc1 | > 26 | > 26 | > 26 | > 26 | 0.928 | > 15
CCCN(Cc1ccccc1OCCCCCC(=O)O)C(=O)c1ccc(-c2ccc3c(c2)OCO3)cc1 | > 26 | > 26 | > 26 | > 26 | > 15 | > 15
CCOC(=O)CCCCCOc1cccc(CN(C(=O)c2ccc(-c3ccc4c(c3)OCO4)cc2)C(C)C)c1 | > 22.6 | > 22.6 | > 22.6 | > 22.6 | > 12.5 | > 12.5
CCOC(=O)CCCCCOc1ccc(CN(C(=O)c2ccc(-c3ccc4c(c3)OCO4)cc2)C(C)C)cc1 | > 26 | > 26 | > 26 | > 26 | > 15 | > 15
CCOC(=O)CCCCCOc1ccccc1CN(C(=O)c1ccc(-c2ccc3c(c2)OCO3)cc1)C(C)C | > 26 | > 26 | > 26 | > 26 | > 15 | > 15
CCCN(Cc1cccc(OCCCCCC(=O)OCC)c1)C(=O)c1ccc(-c2ccc3c(c2)OCO3)cc1 | > 26 | > 26 | > 26 | > 26 | > 15 | > 15
CCCN(Cc1ccc(OCCCCCC(=O)OCC)cc1)C(=O)c1ccc(-c2ccc3c(c2)OCO3)cc1 | > 26 | > 26 | > 26 | > 26 | > 15 | > 15
CCCN(Cc1ccccc1OCCCCCC(=O)OCC)C(=O)c1ccc(-c2ccc3c(c2)OCO3)cc1 | > 26 | > 26 | > 26 | > 26 | > 15 | > 15
CCOC(=O)CCCCCOc1cccc(CN(C(=O)c2ccc(Br)cc2)C(C)C)c1 | > 26 | > 26 | > 26 | > 26 | > 15 | > 15
CCCN(Cc1ccc(OCCCCCC(=O)OCC)cc1)C(=O)c1ccc(Br)cc1 | > 26 | > 26 | > 26 | > 26 | > 15 | > 15
CCOC(=O)CCCCCOc1ccccc1CNC(C)C | > 26 | > 26 | > 26 | > 26 | > 15 | > 15
CC(C)N(Cc1cccc(OCCCCCC(=O)O)c1)C(=O)c1ccc(-c2ccc3c(c2)OCO3)cc1 | > 26 | > 26 | > 26 | > 26 | 0.438 | 0.0604
CCOC(=O)CCCCCOc1cccc(CNC(C)C)c1 | > 26 | > 26 | > 26 | > 26 | > 15 | > 15
CCOC(=O)CCCCCOc1ccc(CNC(C)C)cc1 | > 26 | > 26 | > 26 | > 26 | > 15 | > 15
CCCNCc1ccccc1OCCCCCC(=O)OCC | > 26 | > 26 | > 26 | > 26 | > 15 | > 15
CCCNCc1cccc(OCCCCCC(=O)OCC)c1 | > 26 | > 26 | > 26 | > 26 | > 15 | > 15
CCCNCc1ccc(OCCCCCC(=O)OCC)cc1 | > 26 | > 26 | > 26 | > 26 | > 15 | > 15
CCOC(=O)CCCCCOc1ccccc1C=O | > 26 | > 26 | > 26 | > 26 | > 15 | > 15

Structure (SMILES) | EC50 [1] [µM] | EC50 [2] [µM] | EC50 [3] [µM] | EC50 [4] [µM] | EC50 [5] [µM] | EC50 [6] [µM]
CCOC(=O)CCCCCOc1cccc(C=O)c1 | > 26 | > 26 | > 26 | > 26 | > 15 | > 15
CCOC(=O)CCCCCOc1ccc(C=O)cc1 | > 26 | > 26 | > 26 | > 26 | > 15 | 0.0584
CCOC(=O)CCCCCOc1ccc(C(O)O)cc1 | > 27.2 | > 27.2 | > 27.2 | > 27.2 | > 15 | > 15
CCOC(=O)CCCCCOc1ccc(CO)cc1 | > 27.2 | > 27.2 | > 27.2 | > 27.2 | > 15 | > 15
[N-]=[N+]=NC[C@H](O)c1ccc2c(c1)OCO2 | > 13 | > 13 | > 13 | > 13 | > 7.51 | > 7.51
C[C@@H](NC(=O)c1ccc(-c2ccc3c(c2)OCO3)cc1)c1ccccc1 | > 26 | > 26 | > 26 | > 26 | > 15 | > 15
CC(C)N(C(=O)c1ccc(-c2ccc3c(c2)OCO3)cc1)[C@H](C)c1ccccc1 | > 26 | > 26 | > 26 | > 26 | > 15 | > 15
COc1ccc(C(=O)C(Br)N=[N+]=[N-])cc1OC (stereo not drawn) | > 13 | > 13 | > 13 | > 13 | > 7.51 | > 7.51
COc1cc(C)ccc1OCCOc1ccccc1F | > 26 | > 26 | > 26 | > 26 | > 15 | > 15
O=C(Nc1ccc2c(c1)OCO2)c1cc(-c2cccs2)nc2ccccc12 | > 26 | > 26 | > 26 | > 26 | > 15 | > 15
O=C(O)c1cc(-c2cccs2)nc2ccccc12 | > 26 | > 26 | > 26 | > 26 | 0.822 | 0.664
COc1ccc(-c2cc(C(=O)O)c3ccccc3n2)cc1OC | > 26 | > 26 | > 26 | > 26 | > 15 | > 15
C=CCCN(CCc1ccc(OC)c(OC)c1)C(=O)CC(C)=O | > 13 | > 13 | > 13 | > 13 | > 7.51 | > 7.51
CCOC(=O)CC(=O)NCCc1ccc(OC)c(OC)c1 | > 13 | > 13 | > 13 | > 13 | > 7.51 | > 7.51
C=CCCC(=O)NCC1(c2ccc3c(c2)OCO3)OCCO1 | > 13 | > 13 | > 13 | > 13 | > 7.51 | > 7.51
CCOC(OCC)C(=O)NCCc1ccc(OC)c(OC)c1 | > 13 | > 13 | > 13 | > 13 | > 7.51 | > 7.51
COc1ccc(CCNC(=O)CCO[Si](C)(C)C(C)(C)C)cc1OC | > 13 | 6.9 | 4.89 | > 13 | > 7.51 | > 2.58
CCOC(=O)CC(=O)NCC(OCC)(OCC)c1ccc2c(c1)OCO2 | > 13 | > 13 | > 13 | > 13 | > 7.51 | > 7.51
C=CCCC(=O)NC[C@H](O)c1ccc2c(c1)OCO2 | > 13 | > 13 | > 13 | > 13 | > 7.51 | > 7.51
CC(C)(C)OC(=O)NCC(OC(=O)C(O)CO)c1ccc2c(c1)OCO2 (stereo not drawn) | > 13 | > 13 | > 13 | > 13 | > 7.51 | > 7.51
CC(C)N(Cc1cccc(OCCCCCC(=O)O)c1)C(=O)c1ccc(-c2cccc3ccccc23)cc1 | – | > 26 | > 26 | > 26 | > 15 | > 15
CCOC(=O)CCCCCOc1cccc(CN(C(=O)c2ccc(-c3cccc(C(F)(F)F)c3)cc2)C(C)C)c1 | – | > 26 | > 26 | > 26 | > 15 | > 15
CCOC(=O)CCCCCOc1cccc(CN(C(=O)c2ccc(-c3cccc([N+](=O)[O-])c3)cc2)C(C)C)c1 | – | > 26 | > 26 | > 26 | > 15 | > 15
